Tested on: yeast genes (level of expressed mRNA)
Assay: DNA chip analysis of expressed mRNA of yeast genes after 2 h culture with a toxic chemical substance
Type: cell-based, Saccharomyces cerevisiae S288C
Settings: for The level of expressed mRNA in the presence of chemical substance/ (ratio to absence): transport facilitation protein gene; for The level of expressed mRNA in the presence of chemical substance/: ratio to no chemical; for The level of expressed mRNA in the presence of chemical substance/ (ratio to absence of chemical substance): stress protein genes, DNA chip
Method in brief: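 S. cerevisiae S288C in YPD at 25 °C was exposed at log phase for 2 h to a growth-inhibiting, non-lethal concentration of the chemical. Poly(A) mRNA was reverse-transcribed with Cy3- or Cy5-dUTP and hybridized to a whole-genome yeast DNA chip (65 °C, >12 h). Values are fluorescence ratios versus untreated cells.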

sodium dodecylbenzosulfonate [(17)]
The level of expressed mRNA in the presence of chemical substance/in the absence of chemical substance (yeast gene YGR124W): 0.7
The level of expressed mRNA in the presence of chemical substance/The level of expressed mRNA in the absence of chemical substance (yeast gene YGR136W): 1.3
The level of expressed mRNA in the presence of chemical substance/ (ratio to absence) (yeast gene YGR138C): 0.7
The level of expressed mRNA in the presence of chemical substance/ (yeast gene YGR153W): 1.3
The level of expressed mRNA in the presence of chemical substance/in the absence of chemical substance (yeast gene YGR157W): 0.8
The level of expressed mRNA in the presence of chemical substance/The level of expressed mRNA in the absence of chemical substance (yeast gene YGR189C): 2.3
The level of expressed mRNA in the presence of chemical substance/in the absence of chemical substance (yeast gene YGR192C): 1.1
The level of expressed mRNA in the presence of chemical substance/The level of expressed mRNA in the absence of chemical substance (yeast gene YGR213C): 12.8
The level of expressed mRNA in the presence of chemical substance/ (yeast gene YGR223C): 1.1
The level of expressed mRNA in the presence of chemical substance/in the absence of chemical substance (yeast gene YGR244C): 1.9
The level of expressed mRNA in the presence of chemical substance/ (yeast gene YGR247W): 1.0
The level of expressed mRNA in the presence of chemical substance/in the absence of chemical substance (yeast gene YGR254W): 1.3
The level of expressed mRNA in the presence of chemical substance/The level of expressed mRNA in the absence of chemical substance (yeast gene YGR257C): 1.1
The level of expressed mRNA in the presence of chemical substance/ (in its absence), gene YGR287C (yeast gene YGR287C, ratio of DNA chip fluorescence intensity to that without chemical substance): 1.0
The level of expressed mRNA in the presence of chemical substance/ (in its absence), gene YGR288W (yeast gene YGR288W, ratio of DNA chip fluorescence intensity to that without chemical substance): 1.2
The level of expressed mRNA in the presence of chemical substance/ (yeast gene YGR295C): 1.6
The level of expressed mRNA in the presence of chemical substance/ (ratio to absence of chemical substance) (yeast gene YHL028W): 1.6
The level of expressed mRNA in the presence of chemical substance/ (ratio to absence) (yeast gene YHL035C): 1.1
The level of expressed mRNA in the presence of chemical substance/ (ratio to absence) (yeast gene YHL036W): 1.0
The level of expressed mRNA in the presence of chemical substance/ (ratio to absence) (yeast gene YHL040C): 1.4
The level of expressed mRNA in the presence of chemical substance/ (yeast gene YHL044W): 0.8
The level of expressed mRNA in the presence of chemical substance/ (ratio to absence of chemical substance) (yeast gene YHL046C): 0.9
The level of expressed mRNA in the presence of chemical substance/The level of expressed mRNA in the absence of chemical substance (yeast gene YHR004C): 1.4
The level of expressed mRNA in the presence of chemical substance/in the absence of chemical substance (yeast gene YHR018C): 1.9
The level of expressed mRNA in the presence of chemical substance/in the absence of chemical substance (yeast gene YHR043C): 1.4
The level of expressed mRNA in the presence of chemical substance/in the absence of chemical substance (yeast gene YHR044C): 1.3
The level of expressed mRNA in the presence of chemical substance/ (ratio to absence) (yeast gene YHR048W): 0.7
The level of expressed mRNA in the presence of chemical substance/The level of expressed mRNA in the absence of chemical substance (yeast gene YHR071W): 2.6
The level of expressed mRNA in the presence of chemical substance/ (ratio to absence) (yeast gene YHR092C): 0.9
The level of expressed mRNA in the presence of chemical substance/ (ratio to absence) (yeast gene YHR094C): 1.4
The level of expressed mRNA in the presence of chemical substance/in the absence of chemical substance (yeast gene YHR112C): 1.6
The level of expressed mRNA in the presence of chemical substance/ (yeast gene YHR116W): 0.9
The level of expressed mRNA in the presence of chemical substance/The level of expressed mRNA in the absence of chemical substance (yeast gene YHR139C): 1.4
The level of expressed mRNA in the presence of chemical substance/The level of expressed mRNA in the absence of chemical substance (yeast gene YHR142W): 1.3
The level of expressed mRNA in the presence of chemical substance/ (yeast gene YHR145C): 1.3
The level of expressed mRNA in the presence of chemical substance/ (ratio to absence) (yeast gene YHR175W): 1.3
The level of expressed mRNA in the presence of chemical substance/ (in its absence), gene YHR210C (yeast gene YHR210C, ratio of DNA chip fluorescence intensity to that without chemical substance): 1.4
The level of expressed mRNA in the presence of chemical substance/ (in its absence), gene YIL006W (yeast gene YIL006W, ratio of DNA chip fluorescence intensity to that without chemical substance): 0.8
The level of expressed mRNA in the presence of chemical substance/ (ratio to absence of chemical substance) (yeast gene YIL011W): 0.8
The level of expressed mRNA in the presence of chemical substance/ (ratio to absence) (yeast gene YIL022W): 0.8
The level of expressed mRNA in the presence of chemical substance/ (ratio to absence) (yeast gene YIL056W): 1.5
The level of expressed mRNA in the presence of chemical substance/ (yeast gene YIL058W): 1.4
The level of expressed mRNA in the presence of chemical substance/ (yeast gene YIL060W): 1.2
The level of expressed mRNA in the presence of chemical substance/ (yeast gene YIL065C): 2.1
The level of expressed mRNA in the presence of chemical substance/ (yeast gene YIL083C): 0.9
The level of expressed mRNA in the presence of chemical substance/ (ratio to absence) (yeast gene YIL088C): 1.2
The level of expressed mRNA in the presence of chemical substance/ (yeast gene YIL097W): 1.1
The level of expressed mRNA in the presence of chemical substance/The level of expressed mRNA in the absence of chemical substance (yeast gene YIL123W): 1.3
The level of expressed mRNA in the presence of chemical substance/The level of expressed mRNA in the absence of chemical substance (yeast gene YIL140W): 0.7
The level of expressed mRNA in the presence of chemical substance/in the absence of chemical substance (yeast gene YIL160C): 2.4
The level of expressed mRNA in the presence of chemical substance/ (ratio to absence) (yeast gene YIL166C): 1.2
The level of expressed mRNA in the presence of chemical substance/ (ratio to absence) (yeast gene YIL170W): 1.6
The level of expressed mRNA in the presence of chemical substance/in the absence of chemical substance (yeast gene YIR017C): 1.5
The level of expressed mRNA in the presence of chemical substance/in the absence of chemical substance (yeast gene YIR030C): 0.9
The level of expressed mRNA in the presence of chemical substance/ (yeast gene YJL036W): 1.4
The level of expressed mRNA in the presence of chemical substance/in the absence of chemical substance (yeast gene YJL052W): 1.2
The level of expressed mRNA in the presence of chemical substance/ (in its absence), gene YJL070C (yeast gene YJL070C, ratio of DNA chip fluorescence intensity to that without chemical substance): 1.1
The level of expressed mRNA in the presence of chemical substance/The level of expressed mRNA in the absence of chemical substance (yeast gene YJL073W): 1.1
The level of expressed mRNA in the presence of chemical substance/The level of expressed mRNA in the absence of chemical substance (yeast gene YJL089W): 1.2
The level of expressed mRNA in the presence of chemical substance/ (ratio to absence) (yeast gene YJL094C): 2.1
The level of expressed mRNA in the presence of chemical substance/ (ratio to absence), gene YJL096W (yeast gene YJL096W, mitochondria-located protein genes, 2 h culture with chemical): 1.1
The level of expressed mRNA in the presence of chemical substance/The level of expressed mRNA in the absence of chemical substance (yeast gene YJL116C): 1.2
The level of expressed mRNA in the presence of chemical substance/in the absence of chemical substance (yeast gene YJL153C): 6.5
The level of expressed mRNA in the presence of chemical substance/ (ratio to absence of chemical substance) (yeast gene YJL158C): 1.4
The level of expressed mRNA in the presence of chemical substance/ (in its absence), gene YJL167W (yeast gene YJL167W, ratio of DNA chip fluorescence intensity to that without chemical substance): 1.4
The level of expressed mRNA in the presence of chemical substance/ (ratio to absence), gene YJL180C (yeast gene YJL180C, mitochondria-located protein genes, 2 h culture with chemical): 0.9
The level of expressed mRNA in the presence of chemical substance/ (yeast gene YJL185C): 1.0
The level of expressed mRNA in the presence of chemical substance/ (ratio to absence) (yeast gene YJL212C): 0.6
The level of expressed mRNA in the presence of chemical substance/ (yeast gene YJL213W): 2.1
The level of expressed mRNA in the presence of chemical substance/ (in its absence), gene YJL216C (yeast gene YJL216C, ratio of DNA chip fluorescence intensity to that without chemical substance): 1.2
The level of expressed mRNA in the presence of chemical substance/ (ratio to absence) (yeast gene YJL219W): 1.6
The level of expressed mRNA in the presence of chemical substance/The level of expressed mRNA in the absence of chemical substance (yeast gene YJR004C): 0.4
The level of expressed mRNA in the presence of chemical substance/in the absence of chemical substance (yeast gene YJR009C): 1.1
The level of expressed mRNA in the presence of chemical substance/in the absence of chemical substance (yeast gene YJR010W): 1.2
The level of expressed mRNA in the presence of chemical substance/in the absence of chemical substance (yeast gene YJR073C): 2.9
The level of expressed mRNA in the presence of chemical substance/ (yeast gene YJR085C): 1.4
The level of expressed mRNA in the presence of chemical substance/The level of expressed mRNA in the absence of chemical substance (yeast gene YJR086W): 1.4
The level of expressed mRNA in the presence of chemical substance/ (ratio to absence of chemical substance) (yeast gene YJR090C): 1.1
The level of expressed mRNA in the presence of chemical substance/ (ratio to absence) (yeast gene YJR095W): 1.3
The level of expressed mRNA in the presence of chemical substance/ (ratio to absence) (yeast gene YJR106W): 1.2
The level of expressed mRNA in the presence of chemical substance/in the absence of chemical substance (yeast gene YJR130C): 1.1
The level of expressed mRNA in the presence of chemical substance/in the absence of chemical substance (yeast gene YJR149W): 1.1
The level of expressed mRNA in the presence of chemical substance/in the absence of chemical substance (yeast gene YJR155W): 1.3
The level of expressed mRNA in the presence of chemical substance/in the absence of chemical substance (yeast gene YKL001C): 2.7
The level of expressed mRNA in the presence of chemical substance/The level of expressed mRNA in the absence of chemical substance (yeast gene YKL008C): 1.4
The level of expressed mRNA in the presence of chemical substance/The level of expressed mRNA in the absence of chemical substance (yeast gene YKL013C): 1.6
The level of expressed mRNA in the presence of chemical substance/The level of expressed mRNA in the absence of chemical substance (yeast gene YKL039W): 1.2
The level of expressed mRNA in the presence of chemical substance/The level of expressed mRNA in the absence of chemical substance (yeast gene YKL041W): 1.1
The level of expressed mRNA in the presence of chemical substance/The level of expressed mRNA in the absence of chemical substance (yeast gene YKL096W): 0.5
The level of expressed mRNA in the presence of chemical substance/ (yeast gene YKL133C): 1.2
The level of expressed mRNA in the presence of chemical substance/ (ratio to absence) (yeast gene YKL146W): 1.0
The level of expressed mRNA in the presence of chemical substance/ (yeast gene YKL162C): 0.8
The level of expressed mRNA in the presence of chemical substance/ (ratio to absence of chemical substance) (yeast gene YKL164C): 0.8
The level of expressed mRNA in the presence of chemical substance/The level of expressed mRNA in the absence of chemical substance (yeast gene YKL165C): 0.9
The level of expressed mRNA in the presence of chemical substance/ (yeast gene YKL187C): 0.7
